The record followed here is ChEMBL document CHEMBL5724914, “Linking interpersonal differences in gut microbiota composition and drug biotransformation activity” (2024).

A short description of data set [1]: The drug is tested on Z-026 corresponding to metagenome with ENA study accession number: PRJEB37062 and ENA sample accession number: ERS12561825 for biotransformation under anaerobic condition. The drug concentrations were measured over 9 timepoints collected between 0 and 24 hours of incubation by liquid-chromatography-coupled mass spectrometry (LC–MS). Conditions: 2 µM.

The nature of data set [2]: The drug is tested on Z-014 corresponding to rat gut metagenome with ENA study accession number: PRJEB37062 and ENA sample accession number: ERS12561814 for biotransformation under anaerobic condition. The drug concentrations were measured over 9 timepoints collected between 0 and 24 hours of incubation by liquid-chromatography-coupled mass spectrometry (LC–MS). To be noted: 2 µM.

A short description of data set [3]: The drug is tested on Z-012 corresponding to metagenome with ENA study accession number: PRJEB37062 and ENA sample accession number: ERS12561812 for biotransformation under anaerobic condition. The drug concentrations were measured over 9 timepoints collected between 0 and 24 hours of incubation by liquid-chromatography-coupled mass spectrometry (LC–MS). To be noted: 2 µM.

The nature of data set [4]: The drug is tested on Z-010 corresponding to metagenome with ENA study accession number: PRJEB37062 and ENA sample accession number: ERS12561810 for biotransformation under anaerobic condition. The drug concentrations were measured over 9 timepoints collected between 0 and 24 hours of incubation by liquid-chromatography-coupled mass spectrometry (LC–MS). To be noted: 2 µM.

Data set [5] can be described thus: The drug is tested on Z-008 corresponding to metagenome with ENA study accession number: PRJEB37062 and ENA sample accession number: ERS12561808 for biotransformation under anaerobic condition. The drug concentrations were measured over 9 timepoints collected between 0 and 24 hours of incubation by liquid-chromatography-coupled mass spectrometry (LC–MS). To be noted: 2 µM.

A short description of data set [6]: The drug is tested on Z-006 corresponding to mouse gut metagenome with ENA study accession number: PRJEB37062 and ENA sample accession number: ERS12561806 for biotransformation under anaerobic condition. The drug concentrations were measured over 9 timepoints collected between 0 and 24 hours of incubation by liquid-chromatography-coupled mass spectrometry (LC–MS). Conditions: 2 µM.

Data set [7] can be described thus: The drug is tested on Z-003 corresponding to pig gut metagenome with ENA study accession number: PRJEB37062 and ENA sample accession number: ERS12561803 for biotransformation under anaerobic condition. The drug concentrations were measured over 9 timepoints collected between 0 and 24 hours of incubation by liquid-chromatography-coupled mass spectrometry (LC–MS). Conditions: 2 µM.

Data set [8] is described as follows: The drug is tested on WLS-310 corresponding to human gut metagenome with ENA study accession number: PRJEB37062 and ENA sample accession number: ERS12561785 for biotransformation under anaerobic condition. The drug concentrations were measured over 9 timepoints collected between 0 and 24 hours of incubation by liquid-chromatography-coupled mass spectrometry (LC–MS). To be noted: 2 µM.

Data set [9] can be described thus: The drug is tested on WLS-098 corresponding to human gut metagenome with ENA study accession number: PRJEB37062 and ENA sample accession number: ERS12561754 for biotransformation under anaerobic condition. The drug concentrations were measured over 9 timepoints collected between 0 and 24 hours of incubation by liquid-chromatography-coupled mass spectrometry (LC–MS). Conditions: 2 µM.

The nature of data set [10]: The drug is tested on WLS-077 corresponding to human gut metagenome with ENA study accession number: PRJEB37062 and ENA sample accession number: ERS12561750 for biotransformation under anaerobic condition. The drug concentrations were measured over 9 timepoints collected between 0 and 24 hours of incubation by liquid-chromatography-coupled mass spectrometry (LC–MS). Conditions: 2 µM.

Data set [11] can be described thus: The drug is tested on WLS-010 corresponding to human gut metagenome with ENA study accession number: PRJEB37062 and ENA sample accession number: ERS12561743 for biotransformation under anaerobic condition. The drug concentrations were measured over 9 timepoints collected between 0 and 24 hours of incubation by liquid-chromatography-coupled mass spectrometry (LC–MS). Conditions: 2 µM.

The conditions of data set [12]: human gut metagenome, 24 h, 2 µM.
The conditions of data set [13]: human gut metagenome, 24 h, 2 µM. The source holds these as a separate data set.
For data set [14] the following is noted: human gut metagenome, 24 h, 2 µM. The source holds these as a separate data set.
For data set [15] the following is noted: human gut metagenome, 24 h, 2 µM. The source holds these as a separate data set.
The conditions of data set [16]: human gut metagenome, 24 h, 2 µM. The source holds these as a separate data set.
For data set [17] the following is noted: human gut metagenome, 24 h, 2 µM. The source holds these as a separate data set.
For data set [18] the following is noted: human gut metagenome, 24 h, 2 µM. The source holds these as a separate data set.
For data set [19] the following is noted: human gut metagenome, 24 h, 2 µM. The source holds these as a separate data set.
The conditions of data set [20]: human gut metagenome, 24 h, 2 µM. The source holds these as a separate data set.

SMILES strings stand for the structures.
Also: call rule not given here.

Turning to `CN1C(C(=O)Nc2ccccn2)=C(O)c2sccc2S1(=O)=O` [TENOXICAM], the “Bacterial Biotransformation” value in data set [1], in [2], in data set [3], in data set [4], in data set [5] and in data set [6] was “Compound NOT metabolized” in each case. Moreover, the “Bacterial Biotransformation” value in data set [7], in data set [8], in [9], in data set [10], in data set [11] and in [12] was “Compound NOT metabolized” in each case. The “Bacterial Biotransformation” value in [13], in data set [14], in data set [15], in data set [16], in [17] and in data set [18] was “Compound NOT metabolized” each time. Besides, the “Bacterial Biotransformation” value in data set [19] and in [20] was “Compound NOT metabolized” throughout.
With `O=c1n(CCCN2CCN(c3cccc(Cl)c3)CC2)nc2ccccn12` [TRAZODONE], the “Bacterial Biotransformation” value in data set [1] is “Compound NOT metabolized”; in data set [2], “Compound NOT metabolized”; in data set [3], “Compound NOT metabolized”; in data set [4], “Compound metabolized”; in data set [5] it was “Compound NOT metabolized”; in data set [6], “Compound NOT metabolized”. Moreover, the “Bacterial Biotransformation” value is given as “Compound metabolized” in [7]; “Compound NOT metabolized” in data set [8]; “Compound metabolized” in [9]; “Compound NOT metabolized” in data set [10]; “Compound NOT metabolized” in data set [11]; “Compound NOT metabolized” in data set [12]. Also, the “Bacterial Biotransformation” value in [13] is “Compound NOT metabolized”; in data set [14] it was “Compound metabolized”; in data set [15], “Compound metabolized”; in data set [16] it was “Compound NOT metabolized”; in [17], “Compound NOT metabolized”; in data set [18], “Compound metabolized”. In addition, the “Bacterial Biotransformation” value in data set [19] is “Compound NOT metabolized”; in data set [20], “Compound metabolized”.
Consider `OC(CCN1CCCCC1)(c1ccccc1)C1CCCCC1` (stereo not given) [TRIHEXYPHENIDYL], for which the “Bacterial Biotransformation” value is recorded as “Compound NOT metabolized” in data set [1]; “Compound NOT metabolized” in data set [2]; “Compound NOT metabolized” in [3]; “Compound metabolized” in [4]; “Compound NOT metabolized” in [5]; “Compound NOT metabolized” in [6]. The “Bacterial Biotransformation” value in data set [7] is “Compound metabolized”; in data set [8] it was “Compound metabolized”; in data set [9], “Compound metabolized”; in data set [10] it was “Compound metabolized”; in data set [11], “Compound NOT metabolized”; in data set [12], “Compound NOT metabolized”. The “Bacterial Biotransformation” value in [13], in data set [14], in data set [15], in data set [16], in data set [17] and in data set [18] was “Compound metabolized” throughout. The “Bacterial Biotransformation” value in [19] and in data set [20] was “Compound metabolized” in each case.
For `Cc1ccc(/C(=C\CN2CCCC2)c2ccccn2)cc1` [TRIPROLIDINE], the “Bacterial Biotransformation” value in data set [1], in [2], in [3], in data set [4], in data set [5] and in data set [6] was “Compound NOT metabolized” in each case. Besides, the “Bacterial Biotransformation” value in [7] is “Compound metabolized”; in data set [8] it was “Compound NOT metabolized”; in [9], “Compound NOT metabolized”; in data set [10] it was “Compound NOT metabolized”; in data set [11], “Compound NOT metabolized”; in data set [12], “Compound NOT metabolized”. Moreover, the “Bacterial Biotransformation” value in [13] is on record as “Compound NOT metabolized”; in data set [14], “Compound NOT metabolized”; in data set [15], “Compound metabolized”; in data set [16] it was “Compound NOT metabolized”; in data set [17], “Compound NOT metabolized”; in [18], “Compound NOT metabolized”. The “Bacterial Biotransformation” value in [19] and in [20] was “Compound NOT metabolized” in each case.
